Assay results published in the NIST ThermoML archive (doi:10.1016/j.jct.2009.12.004).
Values joined by “and” are separate entries in the source; they are usually repeats but may differ in a detail not shown here. Equal entries are not always repeated. Numbers after ± are expanded uncertainties.

What was measured:
[1] = activity coefficient (dimensionless); of the first substance listed, at infinite dilution; xn = mol fraction of the nth substance listed; conditions: Liquid, Chromatography, x1 = 0
[2] = 298.15 K; 101.33 kPa; Liquid; Vibrating tube method

| Structure (SMILES) | activity coefficient ([1]; 313.15 K) | activity coefficient ([1]; 323.15 K) | activity coefficient ([1]; 333.15 K) | mass density [2] |
| --- | --- | --- | --- | --- |
| C=CCCCCCCCC [1-decene] + CCCCCCCC[n+]1ccn(C)c1.F[P-](F)(F)(F)(F)F | 16.3 and 16.7 | 16.3 and 16.5 | 16.3 and 16.4 | – |
| C=CCCCCC [1-heptene] + CCCCCCCC[n+]1ccn(C)c1.F[P-](F)(F)(F)(F)F | 8.2 ± 0.7 | 8.1 and 8.2 | 8 and 8.1 | – |
| C#CCCCCC [1-heptyne] + CCCCCCCC[n+]1ccn(C)c1.F[P-](F)(F)(F)(F)F | 2.81 and 2.93 | 2.98 and 2.87 | 2.93 and 3.04 | – |
| C#CCCCC [1-hexyne] + CCCCCCCC[n+]1ccn(C)c1.F[P-](F)(F)(F)(F)F | 2.24 and 2.33 | 2.38 and 2.3 | 2.34 and 2.43 | – |
| C=CCCCCCCC [1-nonene] + CCCCCCCC[n+]1ccn(C)c1.F[P-](F)(F)(F)(F)F | 14.2 and 13.5 | 13.3 and 13.9 | 13.5 and 13.3 | – |
| CCCCCCCC[n+]1ccn(C)c1.F[P-](F)(F)(F)(F)F [1-octyl-3-methylimidazolium hexafluorophosphate] | – | – | – | 1238.51 ± 10 kg/m3 |
| C#CCCCCCC [1-octyne] + CCCCCCCC[n+]1ccn(C)c1.F[P-](F)(F)(F)(F)F | 3.77 and 3.9 | 3.94 and 3.87 | 3.94 and 4.03 | – |
| C#CCCC [1-pentyne] + CCCCCCCC[n+]1ccn(C)c1.F[P-](F)(F)(F)(F)F | 1.7 and 1.72 | 1.79 and 1.75 | 1.78 and 1.84 | – |
| c1ccccc1 [benzene] + CCCCCCCC[n+]1ccn(C)c1.F[P-](F)(F)(F)(F)F | 0.96 and 0.97 | 0.99 ± 0.08 | 1 and 1.03 | – |
| C1CCCCCC1 [cycloheptane] + CCCCCCCC[n+]1ccn(C)c1.F[P-](F)(F)(F)(F)F | 8.2 and 8 | 7.74 and 7.97 | 7.63 and 7.75 | – |
| C1CCCCC1 [cyclohexane] + CCCCCCCC[n+]1ccn(C)c1.F[P-](F)(F)(F)(F)F | 6.7 and 6.82 | 6.61 and 6.56 | 6.29 and 6.3 | – |
| C1CCCCCCC1 [cyclooctane] + CCCCCCCC[n+]1ccn(C)c1.F[P-](F)(F)(F)(F)F | 10.2 and 9.9 | 9.5 and 9.9 | 9.4 ± 0.8 | – |
| C1CCCC1 [cyclopentane] + CCCCCCCC[n+]1ccn(C)c1.F[P-](F)(F)(F)(F)F | 5.02 and 5.06 | 4.95 and 4.92 | 4.77 and 4.79 | – |
| CCCCCCCCCC [decane] + CCCCCCCC[n+]1ccn(C)c1.F[P-](F)(F)(F)(F)F | 31.8 and 31.7 | 30.8 and 30.3 | 28.2 and 29 | – |
| CCO [ethanol] + CCCCCCCC[n+]1ccn(C)c1.F[P-](F)(F)(F)(F)F | 2.22 and 2.32 | 2.05 and 2 | 1.79 and 1.82 | – |
| CCc1ccccc1 [ethylbenzene] + CCCCCCCC[n+]1ccn(C)c1.F[P-](F)(F)(F)(F)F | 1.95 ± 0.17 | 1.98 ± 0.17 | 1.99 and 2.02 | – |
| CCCCCCC [heptane] + CCCCCCCC[n+]1ccn(C)c1.F[P-](F)(F)(F)(F)F | 14.1 and 14.3 | 13.6 and 13.8 | 13.2 ± 1.1 | – |
| C=CCCCC [hex-1-ene] + CCCCCCCC[n+]1ccn(C)c1.F[P-](F)(F)(F)(F)F | 6.2 and 6.5 | 6.29 and 6.15 | 6.1 and 6.15 | – |
| CCCCCC [hexane] + CCCCCCCC[n+]1ccn(C)c1.F[P-](F)(F)(F)(F)F | 10.8 and 11 | 10.7 and 10.6 | 10.2 and 10.4 | – |
| CO [methanol] + CCCCCCCC[n+]1ccn(C)c1.F[P-](F)(F)(F)(F)F | 1.77 and 1.85 | 1.65 and 1.61 | 1.46 and 1.5 | – |
| C=CCCCCCC [oct-1-ene] + CCCCCCCC[n+]1ccn(C)c1.F[P-](F)(F)(F)(F)F | 10.8 and 10.3 | 10.2 and 10.7 | 10.4 and 10.3 | – |
| CCCCCCCC [octane] + CCCCCCCC[n+]1ccn(C)c1.F[P-](F)(F)(F)(F)F | 18.3 and 17.6 | 17.1 and 17.9 | 17 and 16.9 | – |
| CCCCC [pentane] + CCCCCCCC[n+]1ccn(C)c1.F[P-](F)(F)(F)(F)F | 8.2 and 8.3 | 8.1 ± 0.7 | 7.8 and 8 | – |
| Cc1ccccc1 [toluene] + CCCCCCCC[n+]1ccn(C)c1.F[P-](F)(F)(F)(F)F | 1.31 and 1.36 | 1.37 and 1.35 | 1.37 and 1.41 | – |
| CCCCCCCCCCC [undecane] + CCCCCCCC[n+]1ccn(C)c1.F[P-](F)(F)(F)(F)F | 42.1 and 41.3 | 40.1 and 39.6 | 36.5 and 37 | – |
